Experimental data taken from patent US11186577B2, “Vasopressin receptor antagonists and products and methods related thereto” (BlackThorn Therapeutics, Inc., priority 2017, dated 2021).
Like-named read-outs stand apart in the source and are kept apart here.

Assays:
[1] = biological target: human Oxytocin Receptor (hOTR) (Homo sapiens (Human), UniProt P30559); test: Oxytocin receptor antagonist assay (oxytocin-evoked calcium, FLIPR, CHEM-1-hOTR cells); format: cell-based; details: read-out: OT IC50
human Oxytocin Receptor (hOTR), sequence (P30559 whole entry): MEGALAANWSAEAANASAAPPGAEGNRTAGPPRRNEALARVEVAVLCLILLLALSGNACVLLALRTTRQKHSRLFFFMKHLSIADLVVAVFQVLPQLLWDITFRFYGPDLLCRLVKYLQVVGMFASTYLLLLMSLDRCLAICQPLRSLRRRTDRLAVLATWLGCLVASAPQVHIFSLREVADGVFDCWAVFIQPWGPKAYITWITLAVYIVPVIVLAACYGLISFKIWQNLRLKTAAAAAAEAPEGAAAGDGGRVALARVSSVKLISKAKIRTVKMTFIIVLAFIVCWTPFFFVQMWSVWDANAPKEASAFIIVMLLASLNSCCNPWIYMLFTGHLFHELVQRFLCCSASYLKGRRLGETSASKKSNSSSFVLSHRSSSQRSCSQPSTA
Experimental: This assay was performed in CHEM-1 cells expressing the human Oxytocin Receptor (hOTR) to determine the inhibitory effect of the compounds of the invention on the human Oxytocin receptor. Oxytocin evokes an increase in intracellular calcium in CHEM-1-hOTR cells which is measured in a fluorescence assay on the FLIPR^TETRA using calcium sensitive dyes. Test compounds were assessed for their ability to affect the magnitude of the response to oxytocin, with antagonists showing a concentration-dependent reduction in the oxytocin-mediated fluorescence.
CHEM-1-hOTR ready was used to assay frozen cells (Eurofins #HTS090RTA) which are supplied with a proprietary Media Component.
Cells were thawed in a 37° C. water bath and diluted with the supplied Media Component to a final volume of 10 ml. The cell suspension was centrifuged at 1000 rpm for 3 min at room temperature and the supernatant was discarded. The cell pellet was resuspended in Media Component (10.5 ml) and the cells (25 μL) were dispensed into a poly-D-lysine coated black, clear bottomed, 384-well plate. The plates were incubated overnight at 37° C., 5% CO2.
(§1) At the start of each assay day the potency of oxytocin was assessed and an EC80 concentration was determined for subsequent compound profiling. Assays were performed using a two-step addition protocol on the FLIPR^TETRA; first addition of 5 μl of control or test compound at 10× final in assay buffer with 15 min incubation at 37° C., 5% CO2 followed by 10 μl of oxytocin at 6× final concentration in assay buffer. Changes in fluorescence were monitored for 3 min after both additions on the FLIPR^TETRA using 470-495 nm excitation and 515-575 nm emission wavelengths. The assay buffer consisted of HBSS (+Ca/+Mg) supplemented with 20 mM HEPES, and for the preparation of the oxytocin agonist only, 0.1% w/v bovine serum albumin. The assay was initiated by the removal of growth media from the cells and replaced with 45 μl of Calcium-6 dye (Molecular Devices) prepared at 1× in assay buffer. Cells were loaded with dye for 60-90 min at 37° C., 5% CO2 before initiation of the FLIPR^TETRA protocol. […] For compound profiling, test compounds were first serially diluted in DMSO (10-point curve, 1:3 dilutions) then diluted 33.3-fold in assay buffer prior to addition to the dye loaded cells on the FLIPR^TETRA. At the end of the incubation period 10 μl of oxytocin in assay buffer containing 0.1% BSA was added at the previously determined EC80 concentration.
In-plate controls for the assay include a L-368,899 concentration-response curve as the reference OTR antagonist and an oxytocin concentration-response curve to confirm the reproducibility of the EC80 used for the compound challenge.

[2] = biological target: human Arginine Vasopressin Receptor 1b (AVPR1b) (Homo sapiens (Human), UniProt P47901); test: Vasopressin V1B receptor antagonist assay (AVP-evoked calcium, FLIPR, CHO-AVPR1b cells); format: cell-based
human Arginine Vasopressin Receptor 1b (AVPR1b), sequence (P47901 whole entry): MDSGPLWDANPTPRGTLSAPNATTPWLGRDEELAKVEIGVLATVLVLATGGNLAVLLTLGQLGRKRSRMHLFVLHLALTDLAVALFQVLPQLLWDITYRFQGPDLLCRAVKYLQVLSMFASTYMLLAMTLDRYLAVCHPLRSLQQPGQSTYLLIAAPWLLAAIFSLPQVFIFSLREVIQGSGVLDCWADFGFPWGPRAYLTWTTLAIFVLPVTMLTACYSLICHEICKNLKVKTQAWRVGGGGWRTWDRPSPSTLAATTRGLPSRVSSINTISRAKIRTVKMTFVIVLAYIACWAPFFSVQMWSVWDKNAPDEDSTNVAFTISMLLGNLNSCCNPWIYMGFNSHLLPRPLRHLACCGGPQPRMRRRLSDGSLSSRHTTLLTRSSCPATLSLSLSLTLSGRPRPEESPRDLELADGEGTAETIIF
Experimental: The purpose of the assay is to determine the inhibitory effect of synthesized compounds on the Vasopressin V1b receptor. The assay was performed in Chinese Hamster Ovary (CHO) cells expressing the human Arginine Vasopressin Receptor 1b (AVPR1b). Arginine Vasopressin (AVP) evokes an increase in intracellular calcium in CHO-AVPR1b cells which is measured in a fluorescence assay on the FLIPR^TETRA using calcium sensitive dyes. Test compounds were assessed for their ability to affect the magnitude of the response to AVP, with antagonists showing a concentration-dependent reduction in the AVP-mediated fluorescence.
CHO-AVPR1b cells were maintained in routine culture in T175 Flasks at 37° C., 5% CO2. The growth medium consisted of Ham's F12 media supplemented with 10% v/v fetal bovine serum, 1× non-essential amino acids, and 0.4 mg/ml Geneticin G418.
Cells were harvested from T175 flasks when they were 80-90% confluent by first washing the cell monolayer with PBS and then dissociated using trypsin 0.05%/EDTA (3 mL for a T175 Flask). The flasks were incubated at room temperature until the cells detached. To the cell suspension, 10 ml of growth media was added and the cell density determined using the Vi-Cell automated cell counter. The cells were spun at 1000 rpm for 3 minutes, then the supernatant was carefully removed and discarded. The cell pellet was re-suspended at 6.0e^5 cells/ml in growth media. 25 μL of cells in growth media was dispensed into each well (15,000 cells per well) of a poly-D-lysine coated black, clear bottomed, 384-well plate. The plates were incubated at 37° C., 5% CO2 overnight.
as §1, with “day,” for “day”, “AVP is” for “oxytocin was”, “concentration” for “concentration was”, “AVP” for “oxytocin”, “replacement” for “replaced”
In-plate controls for the assay include a Nelivaptan concentration-response curve as the reference V1b antagonist and an AVP concentration-response curve to confirm the reproducibility of the EC80 used for the compound challenge.

[3] = biological target: human Arginine Vasopressin Receptor 1a (AVPR1a) (Homo sapiens (Human), UniProt P37288); test: Vasopressin V1A receptor antagonist assay (AVP-evoked calcium, FLIPR, CHO-AVPR1a cells); format: cell-based
human Arginine Vasopressin Receptor 1a (AVPR1a), sequence (P37288 whole entry): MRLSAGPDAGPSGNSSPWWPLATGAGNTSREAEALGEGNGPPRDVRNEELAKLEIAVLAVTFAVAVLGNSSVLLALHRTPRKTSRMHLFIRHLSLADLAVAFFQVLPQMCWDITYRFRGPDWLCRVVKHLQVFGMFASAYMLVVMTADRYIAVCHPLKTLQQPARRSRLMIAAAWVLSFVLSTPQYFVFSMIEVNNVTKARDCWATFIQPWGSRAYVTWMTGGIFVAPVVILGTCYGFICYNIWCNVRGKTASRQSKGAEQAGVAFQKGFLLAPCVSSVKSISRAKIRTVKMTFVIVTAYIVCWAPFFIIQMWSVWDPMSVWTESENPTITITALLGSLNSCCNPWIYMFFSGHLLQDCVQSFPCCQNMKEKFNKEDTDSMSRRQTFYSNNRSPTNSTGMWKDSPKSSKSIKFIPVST
Method in brief: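 Antagonism measured as reduction of AVP (EC80, set each assay day) calcium response on FLIPR in dye-loaded CHO-AVPR1a cells. Compounds, 3 μM top in 10-point 1:3 dilution, in duplicate, added 15 min before agonist at 37° C.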

[4] = MDR1-MDCK effective efflux assay (Transwell, 10 μM, 1 hour), wild-type MDCK cells; format: in vitro ADME; details: dog, MDCK, pH 7.4, wild-type MDCK cells, apical to basolateral (A>B), 10 μM, 1 hour; read-out: Papp AB WT
Experimental: (§2) The MDR1-MDCK effective efflux assay was performed as described in the BioFocus Standard Operating Procedure, ADME-SOP-56. Both wild-type (WT) and MDR1-MDCK cells (Solvo Biotechnology) were seeded onto 24-well Transwell plates at 2.35×10^5 cells per well and used in confluent monolayers after a 3 day culture at 37° C. under 5% CO2. For both cell types, test and control compounds (propranolol, vinblastine) were added (10 μM, 0.1% DMSO final, n=2) to donor compartments of the Transwell plate assembly in assay buffer (Hanks balanced salt solution supplemented with 25 mM HEPES, adjusted to pH 7.4) for both apical to basolateral (A>B) and basolateral to apical (B>A) measurements. Incubations were performed at 37° C., with samples removed from both donor and acceptor chambers at T=0 and 1 hour and compound analysed by mass spectrometry (LC-MS/MS) including an analytical internal standard.
(§3) Where V is the volume of each Transwell compartment (apical 125 basolateral 600 and concentrations are the relative MS responses for compound (normalized to internal standard) in the donor chamber before incubation and acceptor chamber at the end of the incubation. Area=area of cells exposed for drug transfer (0.33 cm2).
(§4) Efflux ratios (Papp B>A/Papp A>B) were calculated for each compound from the mean Papp values in each direction for both wild-type and MDR1-MDCK cells.
(§5) In order to confirm the involvement of MDR1 in any efflux seen, an “effective efflux ratio” (EER) was calculated by comparing compound efflux ratios (ER) in the two cell types, i.e. EER=ER(MDR1−MDCK)/ER(wild-type MDCK)
(§6) This ratio illustrates the effect of the over-expressed MDR1 normalised for the background movement of compound through the wild-type cells.
(§7) Lucifer Yellow (LY) was added to the apical buffer in all wells to assess viability of the cell layer. Compound recovery from the wells was determined from MS responses (normalized to internal standard) in donor and acceptor chambers at the end of incubation compared to response in the donor chamber pre-incubation.

[5] = system: MDR1 (P-glycoprotein); test: MDR1-MDCK effective efflux assay (Transwell, 10 μM, 1 hour), MDR1-MDCK cells; format: in vitro ADME; details: dog, MDCK-MDR1, pH 7.4, MDR1-MDCK cells, apical to basolateral (A>B), 10 μM, 1 hour; read-out: Papp AB MDR1
Experimental: as §2, §3, §4, §5, §6, §7

[6] = biological target: human Arginine Vasopressin Receptor V2 (AVPR2) (Homo sapiens (Human), UniProt P30518); test: Vasopressin V2 receptor antagonist assay (cAMP TR-FRET, 1321N1 cells); format: cell-based
human Arginine Vasopressin Receptor V2 (AVPR2), sequence (P30518 whole entry): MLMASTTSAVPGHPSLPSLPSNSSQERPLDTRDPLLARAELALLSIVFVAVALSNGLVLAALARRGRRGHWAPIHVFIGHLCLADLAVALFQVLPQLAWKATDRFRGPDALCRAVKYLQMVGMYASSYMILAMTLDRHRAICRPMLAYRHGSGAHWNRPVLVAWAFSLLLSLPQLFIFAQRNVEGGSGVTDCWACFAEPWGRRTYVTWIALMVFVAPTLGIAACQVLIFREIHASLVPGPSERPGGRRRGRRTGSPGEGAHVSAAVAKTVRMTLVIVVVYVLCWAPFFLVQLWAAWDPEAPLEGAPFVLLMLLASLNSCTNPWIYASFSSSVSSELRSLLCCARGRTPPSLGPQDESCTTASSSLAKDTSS
Experimental: The purpose of the assay was to determine the inhibitory effect of synthesized compounds on the Vasopressin receptor 2. […] Arginine Vasopressin (AVP) evokes an increase in intracellular cAMP in these cells which is measured in a TR-FRET assay using a Europium cAMP tracer and ULight labelled antibody reagents contained in a LANCE Ultra cAMP kit (Perkin Elmer #TRF0263). […] Test compounds were assessed for their ability to affect the magnitude of the response to AVP, with antagonists showing a concentration-dependent decrease in the AVP-mediated reduction in TR-FRET signal.
cAMPZen V2 assay ready cells were thawed at 37° C. and resuspended directly from frozen in 9 ml growth medium consisting of DMEM supplemented with 10% v/v fetal bovine serum, 1× non-essential amino acids, and 1 mM sodium pyruvate. Cells were spun at 1000 rpm for 3 minutes and the supernatant was carefully removed and discarded. The pellet was resuspended in 5 ml stimulation buffer and the cell density determined using the Vi-Cell automated cell counter. The cell suspension was diluted to a 0.2×10^6/ml suspension ready for plating. […] Stimulation buffer consisted of HBSS (+Ca/+Mg) supplemented with 5 mM HEPES, 0.1% BSA stabiliser and 0.5 mM IBMX.
At the start of each assay day the potency of AVP was assessed and an EC80 concentration determined for subsequent compound profiling. Assays were performed by first an addition of 2.5 μl of control or test compound at 4× final concentration in stimulation buffer followed by 2.5 μl of AVP at 4× final concentration in stimulation buffer. After a 1 hour reaction, detection reagents were added by first an addition of 5 μl EU-cAMP tracer, followed by 5 μl ULight-anti-cAMP both diluted as per the manufacturer's instructions. […] For compound profiling, test compounds were dispensed by the Labcyte Echo (10-point curve, 1:3 dilutions) in a target 0.1 μl volume then diluted 750-fold in stimulation buffer containing 3% DMSO prior to addition to the cells. At the end of the incubation period, 2.5 μl of AVP in stimulation buffer was added at the previously determined EC80 concentration.

Question: With `CC(C)OC(=O)N1Cc2cc(Cl)ccc2-n2c(C3CC4(C3)CN(c3cccc(C#N)n3)C4)nnc2C1C` (single isomer, unassigned) [Cpd 204A] as the compound, how does the IC50 [1] read?
Answer: 100 to 500 nM

Question: And the IC50 [2]?
Answer: > 1000 nM

Question: And the IC50 ([3]; read-out: V1a IC50)?
Answer: < 100 nM

Question: Which IC50 [1] does the source give for `CC(C)OC(=O)N1Cc2cc(Cl)ccc2-n2c(C3CC4(C3)CN(c3cccc(C#N)n3)C4)nnc2C1C` (single isomer, unassigned) [Cpd 204B] here?
Answer: > 1000 nM

Question: What about the IC50 [2] of the same compound?
Answer: > 1000 nM

Question: What about the IC50 ([3]; read-out: V1a IC50) of the same compound?
Answer: 100 to 500 nM

Question: With `CC1c2nnc(C3CC4(C3)CN(c3ncccn3)C4)n2-c2ccc(Cl)cc2CN1C(=O)OC1(C)CC1` (single isomer, unassigned) [Cpd 205A] as the compound, how does the IC50 [1] read?
Answer: 500 to 1000 nM

Question: And the IC50 [2]?
Answer: > 1000 nM

Question: And the IC50 ([3]; read-out: V1a IC50)?
Answer: < 100 nM

Question: Which IC50 [1] does the source give for `CC1c2nnc(C3CC4(C3)CN(c3ncccn3)C4)n2-c2ccc(Cl)cc2CN1C(=O)OC1(C)CC1` (single isomer, unassigned) [Cpd 205B] here?
Answer: > 1000 nM

Question: And the IC50 [2]?
Answer: > 1000 nM

Question: And the IC50 ([3]; read-out: V1a IC50)?
Answer: > 1000 nM

Question: With `CC1c2nnc(C3CC4(C3)CN(c3ccc(F)cn3)C4)n2-c2ccc(Cl)cc2CN1C(=O)OC(C)(C)CF` (single isomer, unassigned) [Cpd 206A] as the compound, how does the IC50 [1] read?
Answer: 100 to 500 nM

Question: What about the IC50 [2] of the same compound?
Answer: > 1000 nM

Question: What about the IC50 ([3]; read-out: V1a IC50) of the same compound?
Answer: < 100 nM

Question: Which results are given for `CC1c2nnc(C3CC4(C3)CN(c3ccc(F)cn3)C4)n2-c2ccc(Cl)cc2CN1C(=O)OC(C)(C)CF` (single isomer, unassigned) [Cpd 206B]?
Answer: IC50 [1]: > 1000 nM; IC50 [2]: > 1000 nM; IC50 ([3]; read-out: V1a IC50): 100 to 500 nM

Question: Which results are given for `CC1c2nnc(C3CC4(C3)CN(c3ncccn3)C4)n2-c2ccc(Cl)cc2CN1C(=O)OC(C)(C)CF` (stereo not drawn) [compound 196]?
Answer: IC50 [1]: > 1000 nM; IC50 [2]: > 1000 nM; IC50 ([3]; read-out: V1a IC50): < 100 nM

Question: What does the source list for `CCC1c2nnc(C3CC4(C3)CN(c3ccc(F)cn3)C4)n2-c2ccc(Cl)cc2CN1C(=O)OC` (stereo not drawn) [compound 197, methyl 8-chloro-4-ethyl-1-(2-(5-fluoropyridin-2-yl)-2-azaspiro[3.3]heptan-6-yl)-4H-benzo[f][1,2,4]triazolo[4,3-a][1,4]diazepine-5(6H)-carboxylate]?
Answer: Papp A→B at 1 h, 10 μM [4]: > 20 ×10⁻⁶ cm/s; Papp A→B at 1 h, 10 μM [5]: > 20 ×10⁻⁶ cm/s; IC50 [3]: 100 to 500 nM

Question: Which IC50 [1] does the source give for `COC(=O)N1Cc2cc(Cl)ccc2-n2c(C3CC4(C3)CN(c3ncccn3)C4)nnc2C12CC2` [compound 199] here?
Answer: > 1000 nM

Question: And the IC50 [2]?
Answer: > 1000 nM

Question: What about the IC50 ([3]; read-out: V1a IC50) of the same compound?
Answer: < 100 nM

Question: Which Papp A→B at 1 h, 10 μM [4] does the source give for `O=C1OCC2c3nnc(C4CC5(C4)CN(c4ccc(F)cn4)C5)n3-c3ccc(Cl)cc3CN12` (stereo not drawn) [compound 200, 7-chloro-3-(2-(5-fluoropyridin-2-yl)-2-azaspiro[3.3]heptan-6-yl)-13,13a-dihydro-9H,11H-benzo[e]oxazolo[3,4-a][1,2,4]triazolo[3,4-c][1,4]diazepin-11-one] here?
Answer: > 20 ×10⁻⁶ cm/s

Question: What about the Papp A→B at 1 h, 10 μM [5] of the same compound?
Answer: < 7 ×10⁻⁶ cm/s

Question: And the IC50 [3]?
Answer: 100 to 500 nM

Question: Which IC50 [1] does the source give for `Cc1nc(N2CC3(CC(c4nnc5n4-c4ccc(Cl)cc4CN(C4CC4)C5)C3)C2)ccc1F` [compound 229] here?
Answer: 500 to 1000 nM

Question: What about the IC50 ([3]; read-out: V1a IC50) of the same compound?
Answer: < 100 nM

Question: What about the IC50 [6] of the same compound?
Answer: < 100 nM
